Numbered stars: 1 amine (or outer) side, 2 acyl side, 3 side chain; on linkers, the order of the positions; unused ones are H or OH. Bridge positions count the residues as written; N and C are the ends. Square brackets hold non-standard residues; d marks the D form. Peptide text beside a SMILES is read from it. Adda = CO[C@@H](Cc1ccccc1)[C@@H](C)/C=C(C)/C=C/[C@H](N[*:1])[C@H](C)C(=O)[*:2]; dAsp(3S-Me) = C[C@H](C(=O)[*:3])[C@@H](N[*:1])C(=O)[*:2]; d(γGlu) = O=C(O)[C@@H](CCC(=O)[*:2])N[*:1]; NMeDha = C=C(NC)C(=O)O

The data set concerns Hepatotoxicity. Kind of data set: Literature-mined public compounds from Greene et al multi-species hepatotoxicity modelling dataset.
As to `CC[C@@H](CO)NC(=O)[C@@H]1C=C2c3cccc4c3c(cn4C)C[C@H]2N(C)C1.O=C(O)/C=C\C(=O)O` [METHYSERGIDE MALEATE], the Hepatotoxicity result is listed as “NE: No evidence of hepatotoxicity in any species”.
The value for `Cc1ccccc1N1C(=O)c2cc(S(N)(=O)=O)c(Cl)cc2NC1C` (centres undefined) [METOLAZONE] was “HH: Evidence of human hepatotoxicity”; that for `Cc1ncc([N+](=O)[O-])n1CCO` [METRONIDAZOLE] was “HH: Evidence of human hepatotoxicity”; that for `CC1(C)S[C@@H]2[C@H](NC(=O)[C@H](NC(=O)N3CCN(S(C)(=O)=O)C3=O)c3ccccc3)C(=O)N2[C@H]1C(=O)[O-].[Na+]` [MEZLOCILLIN SODIUM] was “HH: Evidence of human hepatotoxicity”.
Under `CN1CCN2c3ccccc3Cc3ccccc3C2C1` (centres undefined) [MIANSERIN] stands “HH: Evidence of human hepatotoxicity”; under `COCC(=O)O[C@]1(CCN(C)CCCc2nc3ccccc3[nH]2)CCc2cc(F)ccc2[C@@H]1C(C)C` [MIBEFRADIL], “NE: No evidence of hepatotoxicity in any species”; under `Clc1ccc(COC(Cn2ccnc2)c2ccc(Cl)cc2Cl)c(Cl)c1` (centres undefined) [MICONAZOLE], “NE: No evidence of hepatotoxicity in any species”.
Take `C=C1C(=O)N[C@H](C)C(=O)N[C@@H](CC(C)C)C(=O)N[C@@H](C(=O)O)[C@H](C)C(=O)N[C@@H](CCCNC(=N)N)C(=O)N[C@@H](/C=C/C(C)=C/[C@H](C)[C@H](Cc2ccccc2)OC)[C@H](C)C(=O)N[C@@H](C(=O)O)CCC(=O)N1C` [MICROCYSTIN-LR] (R[Adda][d(γGlu)][NMeDha][dA]L[dAsp(3S-Me)]-OH; lactam N-7): the Hepatotoxicity result is on record as “AH: Evidence for animal hepatotoxicity but not tested in humans”.
Under `CN(C)c1ccc(O)c2c1C[C@H]1C[C@H]3[C@H](N(C)C)C(O)=C(C(N)=O)C(=O)[C@@]3(O)C(O)=C1C2=O.Cl` [MINOCYCLINE HYDROCHLORIDE] stands “HH: Evidence of human hepatotoxicity”; under `Cl.Cl.O=C1c2c(O)ccc(O)c2C(=O)c2c(NCCNCCO)ccc(NCCNCCO)c21` [MITOXANTRONE HYDROCHLORIDE], “HH: Evidence of human hepatotoxicity”.
The value for `CCc1c(C)[nH]c2c1C(=O)C(CN1CCOCC1)CC2.Cl` (centres undefined) [MOLINDONE HYDROCHLORIDE] was “HH: Evidence of human hepatotoxicity”; that for `C[C@@H]1C[C@H]2[C@@H]3CCC4=CC(=O)C=C[C@]4(C)[C@@]3(Cl)[C@@H](O)C[C@]2(C)[C@@]1(OC(=O)c1ccco1)C(=O)CCl` [MOMETASONE FUROATE] was “NE: No evidence of hepatotoxicity in any species”; that for `C[C@H]1C(=O)O[C@@H]2CCN3CC=C(COC(=O)[C@](C)(O)[C@]1(C)O)[C@H]23` [MONOCROTALINE] was “AH: Evidence for animal hepatotoxicity but not tested in humans”.
`CC(C)(O)c1ccccc1CC[C@@H](SCC1(CC(=O)O)CC1)c1cccc(/C=C/c2ccc3ccc(Cl)cc3n2)c1` [MONTELUKAST]: the Hepatotoxicity entry was “WE: Weak evidence (<10 case reports) of human hepatotoxicity”.
Under `CCOC(=O)Nc1ccc2c(c1)N(C(=O)CCN1CCOCC1)c1ccccc1S2.Cl` [MORICIZINE HYDROCHLORIDE] stands “HH: Evidence of human hepatotoxicity”; under `CO[C@@]1(NC(=O)C(C(=O)[O-])c2ccc(O)cc2)C(=O)N2C(C(=O)[O-])=C(CSc3nnnn3C)CO[C@@H]21.[Na+].[Na+]` (some centres undefined) [MOXALACTAM DISODIUM], “NE: No evidence of hepatotoxicity in any species”.
For the molecule `CN(C)N=O` [N-NITROSODIMETHYLAMINE], the Hepatotoxicity result is given as “AH: Evidence for animal hepatotoxicity but not tested in humans”.
The value for `CC(C)(C)NCC(O)COc1cccc2c1CC(O)C(O)C2` (centres undefined) [NADOLOL] was “NE: No evidence of hepatotoxicity in any species”; that for `CCOc1ccc2ccccc2c1C(=O)N[C@@H]1C(=O)N2[C@@H]1SC(C)(C)[C@@H]2C(=O)[O-].O.[Na+]` [NAFCILLIN SODIUM] was “WE: Weak evidence (<10 case reports) of human hepatotoxicity”; that for `CCn1cc(C(=O)O)c(=O)c2ccc(C)nc21` [NALIDIXIC ACID] was “HH: Evidence of human hepatotoxicity”.
Regarding `O=C1CC[C@@]2(O)[C@H]3Cc4ccc(O)c5c4[C@@]2(CCN3CC2CC2)[C@H]1O5` [NALTREXONE], the Hepatotoxicity entry is reported as “HH: Evidence of human hepatotoxicity”.
For `COc1ccc2cc([C@H](C)C(=O)O)ccc2c1` [NAPROXEN], the Hepatotoxicity result was “WE: Weak evidence (<10 case reports) of human hepatotoxicity”.
On to `CCc1nn(CCCN2CCN(c3cccc(Cl)c3)CC2)c(=O)n1CCOc1ccccc1` [NEFAZODONE], for which the Hepatotoxicity result is on record as “HH: Evidence of human hepatotoxicity”.
The value for `COC(=O)C1=C(C)NC(C)=C(C(=O)OCCN(C)Cc2ccccc2)C1c1cccc([N+](=O)[O-])c1.Cl` (centres undefined) [NICARDIPINE HYDROCHLORIDE] was “HH: Evidence of human hepatotoxicity”; that for `COC(=O)C1=C(C)NC(C)=C(C(=O)OC)C1c1ccccc1[N+](=O)[O-]` [NIFEDIPINE] was “HH: Evidence of human hepatotoxicity”; that for `COCCOC(=O)C1=C(C)NC(C)=C(C(=O)OC(C)C)C1c1cccc([N+](=O)[O-])c1` (centres undefined) [NIMODIPINE] was “HH: Evidence of human hepatotoxicity”.
Consider `COC(=O)C1=C(C)NC(C)=C(C(=O)OCC(C)C)C1c1ccccc1[N+](=O)[O-]` (centres undefined) [NISOLDIPINE], for which the Hepatotoxicity entry was “NE: No evidence of hepatotoxicity in any species”.
With `O=C1CN(/N=C/c2ccc([N+](=O)[O-])o2)C(=O)N1` [NITROFURANTOIN], the Hepatotoxicity entry is reported as “HH: Evidence of human hepatotoxicity”.
Turning to `COC(=O)Nc1nc2ccc(C(=O)c3cccs3)cc2[nH]1` [NOCODAZOLE], the Hepatotoxicity result is “NE: No evidence of hepatotoxicity in any species”.
The value for `CN1Cc2c(N)cccc2C(c2ccccc2)C1` (centres undefined) [NOMIFENSINE] was “HH: Evidence of human hepatotoxicity”.
With `C#CC1(O)CC[C@H]2[C@@H]3CCC4=CC(=O)CC[C@@H]4[C@H]3CC[C@@]21CC` (some centres undefined) [NORGESTREL], the Hepatotoxicity entry was “HH: Evidence of human hepatotoxicity”.
Consider `CNCCC=C1c2ccccc2CCc2ccccc21.Cl` [NORTRIPTYLINE HYDROCHLORIDE], for which the Hepatotoxicity entry is given as “HH: Evidence of human hepatotoxicity”.
The value for `CO[C@@H]1[C@@H](OC(N)=O)[C@@H](O)[C@H](Oc2ccc3c(O)c(NC(=O)c4ccc(O)c(CC=C(C)C)c4)c(=O)oc3c2C)OC1(C)C` [NOVOBIOCIN] was “HH: Evidence of human hepatotoxicity”; that for `CCCCC(CC)COC(=O)C=Cc1ccc(OC)cc1` (centres undefined) [OCTINOXATE] was “HH: Evidence of human hepatotoxicity”.
In the case of `Cc1ccccc1C(OCCN(C)C)c1ccccc1.O=C(O)CC(O)(CC(=O)O)C(=O)O` (centres undefined) [ORPHENADRINE CITRATE], the Hepatotoxicity result is “NE: No evidence of hepatotoxicity in any species”.
In the case of `O=C(O)CCc1nc(-c2ccccc2)c(-c2ccccc2)o1` [OXAPROZIN], the Hepatotoxicity result is listed as “HH: Evidence of human hepatotoxicity”.
Under `CCCOc1ccc2nc(NC(=O)OC)[nH]c2c1` [OXIBENDAZOLE] stands “AH: Evidence for animal hepatotoxicity but not tested in humans”.
Under `CC[N+](C)(CC)CCOC(=O)C(O)(c1ccccc1)C1CCCCC1` (centres undefined) [OXYPHENONIUM] stands “NE: No evidence of hepatotoxicity in any species”; under `O=S(=O)(O)O.Oc1cccc2cccnc12.Oc1cccc2cccnc12` [OXYQUINOLINE SULFATE], “HH: Evidence of human hepatotoxicity”.
Under `CC(=O)O[C@H]1C(=O)[C@@]2(C)[C@H]([C@H](OC(=O)c3ccccc3)[C@]3(O)C[C@H](OC(=O)[C@H](O)[C@@H](NC(=O)c4ccccc4)c4ccccc4)C(C)=C1C3(C)C)[C@]1(OC(C)=O)CO[C@@H]1C[C@@H]2O` [PACLITAXEL] stands “HH: Evidence of human hepatotoxicity”.
Regarding `NCCC(O)(P(=O)(O)O)P(=O)(O)O` [PAMIDRONIC ACID], the Hepatotoxicity entry is on record as “NE: No evidence of hepatotoxicity in any species”.
The value for `C#CCN(C)Cc1ccccc1` [PARGYLINE] was “NE: No evidence of hepatotoxicity in any species”; that for `NC[C@@H]1O[C@H](O[C@H]2[C@@H](O)[C@H](O[C@@H]3[C@@H](O)[C@H](N)C[C@H](N)[C@H]3O[C@H]3O[C@H](CO)[C@@H](O)[C@H](O)[C@H]3N)O[C@@H]2CO)[C@H](N)[C@@H](O)[C@@H]1O.O=S(=O)(O)O` [PAROMOMYCIN SULFATE] was “NE: No evidence of hepatotoxicity in any species”; that for `Fc1ccc([C@@H]2CCNC[C@H]2COc2ccc3c(c2)OCO3)cc1` [PAROXETINE] was “WE: Weak evidence (<10 case reports) of human hepatotoxicity”.
As to `NC1=NC(=O)C(c2ccccc2)O1` (centres undefined) [PEMOLINE], the Hepatotoxicity entry is recorded as “HH: Evidence of human hepatotoxicity”.
Under `CC(C)(C)NC[C@H](O)COc1ccccc1C1CCCC1.CC(C)(C)NC[C@H](O)COc1ccccc1C1CCCC1.O=S(=O)(O)O` [PENBUTOLOL SULFATE] stands “HH: Evidence of human hepatotoxicity”; under `CC1(C)S[C@@H]2[C@H](NC(=O)Cc3ccccc3)C(=O)N2[C@H]1C(=O)[O-].[Na+]` [PENICILLIN G SODIUM], “HH: Evidence of human hepatotoxicity”; under `C1CCC(C(CC2CCCCN2)C2CCCCC2)CC1` (centres undefined) [PERHEXILINE], “HH: Evidence of human hepatotoxicity”.
The value for `CC1(C)C(C=C(Cl)Cl)C1C(=O)OCc1cccc(Oc2ccccc2)c1` (centres undefined) [PERMETHRIN] was “NE: No evidence of hepatotoxicity in any species”; that for `CCOc1ccc(NC(C)=O)cc1` [PHENACETIN] was “HH: Evidence of human hepatotoxicity”; that for `Cl.Nc1ccc(/N=N/c2ccccc2)c(N)n1` [PHENAZOPYRIDINE HYDROCHLORIDE] was “HH: Evidence of human hepatotoxicity”.
The value for `NNCCc1ccccc1` [PHENELZINE] was “NE: No evidence of hepatotoxicity in any species”.
As for `c1ccc2c(c1)Nc1ccccc1S2` [PHENOTHIAZINE], the Hepatotoxicity entry was “HH: Evidence of human hepatotoxicity”.
The value for `CC(COc1ccccc1)N(CCCl)Cc1ccccc1.Cl` (centres undefined) [PHENOXYBENZAMINE HYDROCHLORIDE] was “NE: No evidence of hepatotoxicity in any species”.

The values are drawn from ChEMBL document CHEMBL1697692, “Developing structure-activity relationships for the prediction of hepatotoxicity” (Chem Res Toxicol, 2010).
